Laboratory results published in patent US9605005B2, “Alkynyl alcohols and methods of use” (Genentech, Inc., priority 2013, dated 2017).

Tests used:
[1] = molecular target: nuclear factor-kappa B (NF-kB)-inducing kinase (NIK) (Homo sapiens (Human), UniProt Q99558); assay: NIK enzyme inhibition assay (Transcreener ADP, NIK ADP-FP); format: biochemical; conditions: purified NIK 0.5 nM, 10 μM ATP, fluorescence polarization; read-out: NIK ADP-FP (Ki μM)
[2] = system: REL-A (p65) nuclear translocation, HeLa cells; assay: REL-A (p65) nuclear translocation assay in HeLa cells (classical NF-kB signaling, TNF-α stimulated); format: cell-based; conditions: Homo sapiens, 0.5 h; HeLa cells, 10 ng/mL TNF-α for 30 minutes; read-out: REL-A HeLa Transloc Assay (IC50)
Procedure: (§1) Several assays were developed to profile the cellular activities of NIK inhibitors.
(§2) (2) A second set of cell assay are used to define the selectivity of NIK inhibitors toward inhibition of classical vs. non-classical NF-kB signaling and rely on quantification of the nuclear translocation of p52 (NF-kB2) and REL-A (p65) using high content cellular imaging. For the p52 (non-classical NF-kB signaling) nuclear translocation assay, HeLa cells are treated with different concentrations of compounds (0.2% DMSO final) in medium containing 10% fetal bovine serum and then stimulated with 100 ng/mL of an anti-lymphotoxin beta receptor antibody (R&D Systems) for 5 hours. In the REL-A nuclear translocation assay, HeLa cells are incubated with compounds (0.2% DMSO final) for 4.5 hours in medium containing 10% fetal bovine serum before stimulating them with 10 ng/mL tumor necrosis factor (TNF)-α (R&D Systems) for 30 minutes. Cells are fixed with 4% paraformaldehyde, permeabilized by adding 0.1% Triton X-100 in phosphate buffered saline, and then are incubated with either 2 ug/mL anti-p52 antibody (Millipore) or 400 ng/mL anti-REL-A (p65) antibody (Santa Cruz Biotechnology). Finally, the cells are incubated with an Alexa488-labeled secondary antibody (Invitrogen) and DRAQ5 DNA stain (Biostatus). Imaging is carried out using an Opera reader (Perkin Elmer) and data are analyzed with the aid of Acapella software (Perkin Elmer). The p52 or REL-Atranslocation into the nucleus is quantified by the ratio of the nuclear to cytoplasmic signal intensity. […] The compounds in listed in Table 1 have the corresponding inhibitory value (IC50 in micromolar) for NIK p52 Translocation Assay as set forth in Table 2.
(§3) The compounds in listed in Table 1 have the corresponding inhibitory values (IC50 in micromolar) for the Translocation Assays as set forth in Table 2.

[3] = system: p52 (NF-kB2) nuclear translocation, HeLa cells; assay: p52 (NF-kB2) nuclear translocation assay in HeLa cells (non-classical NF-kB signaling, anti-lymphotoxin beta receptor antibody stimulated); format: cell-based; conditions: Homo sapiens, 100 ng/mL anti-lymphotoxin beta receptor antibody for 5 hours, read-out: p52 HeLa Transloc Assay (IC50)
Procedure: as §1, §2, §3

Sequence of nuclear factor-kappa B (NF-kB)-inducing kinase (NIK) (Q99558 whole entry): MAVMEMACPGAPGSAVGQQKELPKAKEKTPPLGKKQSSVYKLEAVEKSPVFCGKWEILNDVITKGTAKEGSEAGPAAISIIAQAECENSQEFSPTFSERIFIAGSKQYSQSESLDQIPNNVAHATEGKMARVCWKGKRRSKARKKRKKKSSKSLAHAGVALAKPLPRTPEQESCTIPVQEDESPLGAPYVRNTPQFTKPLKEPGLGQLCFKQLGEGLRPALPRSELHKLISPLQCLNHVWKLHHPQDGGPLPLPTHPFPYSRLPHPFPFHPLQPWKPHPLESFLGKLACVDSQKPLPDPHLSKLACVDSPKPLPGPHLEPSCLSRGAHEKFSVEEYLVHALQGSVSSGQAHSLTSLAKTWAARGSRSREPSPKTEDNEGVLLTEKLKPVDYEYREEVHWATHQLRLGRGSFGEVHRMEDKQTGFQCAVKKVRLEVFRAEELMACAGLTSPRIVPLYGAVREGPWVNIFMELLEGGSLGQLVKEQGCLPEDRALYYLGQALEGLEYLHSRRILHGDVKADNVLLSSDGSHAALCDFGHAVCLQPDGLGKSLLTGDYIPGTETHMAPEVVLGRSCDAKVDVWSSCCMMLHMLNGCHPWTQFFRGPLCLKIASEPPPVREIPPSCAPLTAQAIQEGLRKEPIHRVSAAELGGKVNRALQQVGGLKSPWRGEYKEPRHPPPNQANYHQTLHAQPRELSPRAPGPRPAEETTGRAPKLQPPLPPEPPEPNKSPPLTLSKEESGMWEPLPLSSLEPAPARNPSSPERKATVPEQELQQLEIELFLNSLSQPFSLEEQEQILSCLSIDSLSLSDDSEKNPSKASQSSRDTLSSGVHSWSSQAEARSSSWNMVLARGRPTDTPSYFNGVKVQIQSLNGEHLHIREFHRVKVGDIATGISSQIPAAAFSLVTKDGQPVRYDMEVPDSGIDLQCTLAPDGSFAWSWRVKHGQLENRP

Row | Compound | Ki [1] | IC50 [2] | IC50 [3]
1 | CN1CC[C@@](O)(C#Cc2ccnc(-n3nc(C(N)=O)c4c3C[C@@]3(C)C[C@H]3C4)c2)C1=O [Compound 6, (4aS,5aR)-1-[4-[2-[(3R)-3-hydroxy-1-methyl-2-oxo-pyrroli-din-3-yl]ethynyl]-2-pyri-dyl]-5a-methyl-4,4a,5,6-tetrahydrocyclopropa[f]inda-zole-3-carboxamide] | 7.78 nM | 10000 nM | 901 nM
2 | CN1CC[C@@](O)(C#Cc2ccnc(-n3nc(C(N)=O)c4c(F)cccc43)c2)C1=O [Compound 10, 4-fluoro-1-[4-[2-[(3R)-3-hy-droxy-1-methyl-2-oxo-pyrroli-din-3-yl]ethynyl]-2-pyri-dyl]indazole-3-carboxamide] | 1.19 nM | 20000 nM | 66.3 nM
3 | CN1CC[C@@](O)(C#Cc2cccc(-n3nc(C(N)=O)c4c3OCCC4)c2)C1=O [Compound 12, 1-[3-[2-[(3R)-3-hydroxy-1-methyl-2-oxo-pyrrolidin-3-yl]ethynyl]phenyl]-5,6-dihydro-4H-pyrano[2,3-c]pyrazole-3-carboxamide] | 1.56 nM | 20000 nM | 187 nM
4 | COc1ccc2c(c1)c(C(N)=O)nn2-c1cccc(C#C[C@]2(O)CCN(C)C2=O)c1 [Compound 14, 1-[3-[2-[(3R)-3-hydroxy-1-methyl-2-oxo-pyrrolidin-3-yl]ethynyl]phenyl]-5-methoxy-indazole-3-carboxamide] | 0.05 nM | 20000 nM | 67.8 nM
5 | CN1CC[C@@](O)(C#Cc2cccc(-n3nc(C(N)=O)c4c3CCN(C(=O)OC(C)(C)C)C4)c2)C1=O [Compound 16, tert-butyl 3-carbamoyl-1-[3-[2-[(3R)-3-hydroxy-1-methyl-2-oxo-pyrrolidin-3-yl]ethynyl]phe-nyl]-6,7-dihydro-4H-pyrazolo [4,3-c]pyridine-5-carboxylate] | 0.9 nM | 20000 nM | 125 nM
6 | CN1CC[C@@](O)(C#Cc2cc(F)cc(-n3nc(C(N)=O)c4cccnc43)c2)C1=O [Compound 18, 1-[3-fluoro-5-[2-[(3R)-3-hy-droxy-1-methyl-2-oxo-pyrroli-din-3-yl]ethynyl]phenyl] pyrazolo[3,4-b]pyridine-3-carboxamide] | 0.86 nM | 20000 nM | 138 nM
7 | COc1ccc2c(C(N)=O)nn(-c3cccc(C#C[C@]4(O)CCN(C)C4=O)c3)c2c1 [Compound 22, 1-[3-[2-[(3R)-3-hydroxy-1-methyl-2-oxo-pyrrolidin-3-yl]ethynyl]phenyl]-6-methoxy-indazole-3-carboxamide] | 0.34 nM | 20000 nM | 94.8 nM
8 | Cc1nc2c(s1)c(C(N)=O)nn2-c1cccc(C#C[C@]2(O)CCN(C)C2=O)c1 [Compound 25, 1-[3-[2-[(3R)-3-hydroxy-1-methyl-2-oxo-pyrrolidin-3-yl]ethynyl]phenyl]-5-methyl-pyrazolo[3,4-d]thiazole-3-carboxamide] | 0.41 nM | 20000 nM | 44.6 nM
9 | Cc1nnc([C@](C)(O)C#Cc2cccc(-n3nc(C(N)=O)c4ccccc43)c2)o1 [Compound 26, 1-[3-[(3R)-3-hydroxy-3-(5-methyl-1,3,4-oxadiazol-2-yl)but-1-ynyl]phenyl]indazole-3-carboxamide] | 2.52 nM | 20000 nM | 1130 nM
10 | CN1CCC[C@@](O)(C#Cc2cccc(-n3nc(C(N)=O)c4ccc(F)cc43)c2)C1=O [Compound 27, 6-fluoro-1-[3-[2-[(3R)-3-hy-droxy-1-methyl-2-oxo-3-pipe-ridyl]ethynyl]phenyl]inda-zole-3-carboxamide] | 3.75 nM | 20000 nM | 322 nM
11 | CN1CC[C@@](O)(C#Cc2cc(-n3nc(C(N)=O)c4cccnc43)ccc2F)C1=O [Compound 31, 1-[4-fluoro-3-[2-[(3R)-3-hy-droxy-1-methyl-2-oxo-pyrroli-din-3-yl]ethynyl]phenyl] pyrazolo[3,4-b]pyridine-3-carboxamide] | 0.62 nM | 20000 nM | 67.1 nM
12 | CN1CC[C@@](O)(C#Cc2cccc(-n3nc(C(N)=O)c4cc(CO)ccc43)c2)C1=O [Compound 35, 5-(hydroxymethyl)-1-[3-[2-[(3R)-3-hydroxy-1-methyl-2-oxo-pyrrolidin-3-yl]ethynyl]phenyl]indazole-3-carbox-amide] | 1.48 nM | 20000 nM | 737 nM
13 | CN1CC[C@@](O)(C#Cc2cc(-n3nc(C(N)=O)c4cccnc43)cc(C(F)(F)F)c2)C1=O [Compound 36, 1-[3-[2-[(3R)-3-hydroxy-1-methyl-2-oxo-pyrrolidin-3-yl]ethynyl]-5-(trifluorometh-yl)phenyl]pyrazolo[3,4-b] pyridine-3-carboxamide] | 5.53 nM | 20000 nM | 164 nM
14 | CN1CC[C@@](O)(C#Cc2cccc(-n3nc(C(N)=O)c4c(Cl)cccc43)c2)C1=O [Compound 39, 4-chloro-1-[3-[2-[(3R)-3-hydroxy-1-methyl-2-oxo-pyrroli-din-3-yl]ethynyl]phenyl] indazole-3-carboxamide] | 1.21 nM | 20000 nM | 108 nM
15 | CN1CC[C@@](O)(C#Cc2cccc(-n3nc(C(N)=O)c4cc(CC#N)ccc43)c2)C1=O [Compound 41, 5-(cyanomethyl)-1-[3-[2-[(3R)-3-hydroxy-1-methyl-2-oxo-pyrrolidin-3-yl]ethynyl]phenyl]indazole-3-carboxamide] | 0.32 nM | 20000 nM | 52.5 nM
16 | CN1CC[C@@](O)(C#Cc2cccc(-n3nc(C(N)=O)c4cc(C#N)ccc43)c2)C1=O [Compound 42, 5-cyano-1-[3-[2-[(3R)-3-hy-droxy-1-methyl-2-oxo-pyrroli-din-3-yl]ethynyl]phenyl] indazole-3-carboxamide] | 0.64 nM | 20000 nM | 392 nM
17 | C[C@@H](O)c1ccc2c(c1)c(C(N)=O)nn2-c1cccc(C#C[C@]2(O)CCN(C)C2=O)c1 [Compound 43, 5-[(1R)-1-hydroxyethyl]-1-[3-[2-[(3R)-3-hydroxy-1-meth-yl-2-oxo-pyrrolidin-3-yl]ethynyl]phenyl]indazole-3-carboxamide] | 1.6 nM | 20000 nM | 921 nM
18 | CN1CC[C@@](O)(C#Cc2cc(Cl)cc(-n3nc(C(N)=O)c4cccnc43)c2)C1=O [Compound 44, 1-[3-chloro-5-[2-[(3R)-3-hy-droxy-1-methyl-2-oxo-pyrroli-din-3-yl]ethynyl]phenyl] pyrazolo[3,4-b]pyridine-3-carboxamide] | 0.5 nM | 20000 nM | 62 nM
19 | CN1CC[C@@](O)(C#Cc2cccc(-n3nc(C(N)=O)c4ccc(C#N)cc43)c2)C1=O [Compound 46, 6-cyano-1-[3-[2-[(3R)-3-hy-droxy-1-methyl-2-oxo-pyrroli-din-3-yl]ethynyl]phenyl] indazole-3-carboxamide] | 0.5 nM | 20000 nM | 123 nM
20 | CNc1nccc2c1c(C(N)=O)nn2-c1cccc(C#C[C@]2(O)CCN(C)C2=O)c1 [Compound 49, 1-[3-[2-[(3R)-3-hydroxy-1-methyl-2-oxo-pyrrolidin-3-yl]ethynyl]phenyl]-4-(meth-ylamino)pyrazolo[4,3-c]pyri-dine-3-carboxamide] | 0.05 nM | 8000 nM | 7.7 nM
21 | CN1CC[C@@](O)(C#Cc2ccnc(-n3nc(C(N)=O)c4c3CCC4)c2)C1=O [Compound 56, 1-[4-[2-[(3R)-3-hydroxy-1-methyl-2-oxo-pyrrolidin-3-yl]ethynyl]-2-pyridyl]-5,6-dihydro-4H-cyclopenta[c]py-razole-3-carboxamide] | 0.87 nM | 20000 nM | 355 nM
22 | CN1CC[C@@](O)(C#Cc2cccc(-n3nc(C(N)=O)c4c3CCCC4)c2)C1=O [Compound 57, 1-[3-[2-[(3R)-3-hydroxy-1-methyl-2-oxo-pyrrolidin-3-yl]ethynyl]phenyl]-4,5,6,7-tetra-hydroindazole-3-carbox-amide] | 1.4 nM | 20000 nM | 405 nM
23 | Cc1cc([C@](C)(O)C#Cc2ccnc(-n3nc(C(N)=O)c4c3CCCC4)c2)no1 [Compound 60, 1-[4-[(3R)-3-hydroxy-3-(5-methylisoxazol-3-yl)but-1-ynyl]-2-pyridyl]-4,5,6,7-tetra-hydroindazole-3-carbox-amide] | 13.7 nM | 20000 nM | 2310 nM
24 | CN1CC[C@@](O)(C#Cc2ccnc(-n3nc(C(N)=O)c4ccc(F)cc43)c2)C1=O [Compound 63, 6-fluoro-1-[4-[2-[(3R)-3-hy-droxy-1-methyl-2-oxo-pyrroli-din-3-yl]ethynyl]-2-pyri-dyl]indazole-3-carboxamide] | 0.1 nM | 2000 nM | 27 nM
